Data published in patent US6967079B2, “Pyrimidine derivatives for labeled binding partners” (ISIS Pharmaceuticals, Inc., priority 1993, dated 2005).

Experiment: Fluorescence excitation and emission wavelengths
Assay type: physicochemical
Set-up: unit not given here
Conditions: deoxyriboside compound

2′-Deoxphenothiazine [phenothiazine deoxyriboside]
emission wavelength (EM): 492
